A short description of data set [1]: In vivo antitumor activity expressed as lethal dose with daily administration schedule against P388 murine leukemia cells. The class given is ADME, organism-based. Conditions: mouse.
Data set [2] concerns L1210. Briefly: Cytotoxicity inhibition against cultured L1210 cells at 200 uM. It counts as functional. The note with it: Mus musculus.
Data set [3] relates to L1210. The data set can be described thus: Cytotoxicity inhibition against cultured L1210 cells at 400 uM. It counts as functional. Conditions: Mus musculus.

Turning to `CC(=O)OC[C@H]1O[C@@H](N2C(=O)C=CC2=O)[C@H](OC(C)=O)[C@@H]1OC(C)=O`, the LD50 in data set [1] amounted to 10 mg/kg. Regarding `O=C1C=CC(=O)N1C1O[C@H](CO)[C@@H](O)[C@H]1O` (stereo partly specified), the LD50 in data set [1] came to 35 mg/kg. The compound `O=C1C=C(Cl)C(=O)N1C1O[C@H](CO)[C@@H](O)[C@H]1O` (stereo partly specified) gave an LD50 in data set [1] of 18 mg/kg. Against the preceding compound, the LD50 is about 1.9-fold lower.

In the data set on L1210 [2], `CC1=CC(=O)N(C2O[C@H](CO)[C@@H](O)[C@H]2O)C1=O` (stereo partly specified) showed an inhibition at 200 µM of 95%. Besides, in the data set on L1210 [3], the inhibition at 400 µM turned out to be 85%. The same compound yielded an LD50 in data set [1] of 100 mg/kg.

The term LD50 denotes the dose expected to kill half of the subjects tested. A lower LD50 goes with greater toxicity. Broadly, the inhibition is the percentage by which the read-out fell short of the control. Low readings indicate a response near the control, high ones a response far below the control.
